This passage reports DC50 results from US20240101540A1, “TARGETED PROTEIN DEGRADATION OF PARP14 FOR USE IN THERAPY” (Ribon Therapeutics, Inc., priority 2022, published 2024).

Counter-ions that a name gives are not always drawn.

In the experiment the target is T1, HiBiT tagged PARP14 (Homo sapiens, UniProt Q460N5).
T1 construct: engineered to contain a HiBiT tag on both alleles of the PARP14 gene; endogenous in cells; host or cells: Jurkat cells stably transfected with LgBiT (Promega), PARP14 locus edited by CRISPR/Cas9
T1 sequence (Q460N5 whole entry): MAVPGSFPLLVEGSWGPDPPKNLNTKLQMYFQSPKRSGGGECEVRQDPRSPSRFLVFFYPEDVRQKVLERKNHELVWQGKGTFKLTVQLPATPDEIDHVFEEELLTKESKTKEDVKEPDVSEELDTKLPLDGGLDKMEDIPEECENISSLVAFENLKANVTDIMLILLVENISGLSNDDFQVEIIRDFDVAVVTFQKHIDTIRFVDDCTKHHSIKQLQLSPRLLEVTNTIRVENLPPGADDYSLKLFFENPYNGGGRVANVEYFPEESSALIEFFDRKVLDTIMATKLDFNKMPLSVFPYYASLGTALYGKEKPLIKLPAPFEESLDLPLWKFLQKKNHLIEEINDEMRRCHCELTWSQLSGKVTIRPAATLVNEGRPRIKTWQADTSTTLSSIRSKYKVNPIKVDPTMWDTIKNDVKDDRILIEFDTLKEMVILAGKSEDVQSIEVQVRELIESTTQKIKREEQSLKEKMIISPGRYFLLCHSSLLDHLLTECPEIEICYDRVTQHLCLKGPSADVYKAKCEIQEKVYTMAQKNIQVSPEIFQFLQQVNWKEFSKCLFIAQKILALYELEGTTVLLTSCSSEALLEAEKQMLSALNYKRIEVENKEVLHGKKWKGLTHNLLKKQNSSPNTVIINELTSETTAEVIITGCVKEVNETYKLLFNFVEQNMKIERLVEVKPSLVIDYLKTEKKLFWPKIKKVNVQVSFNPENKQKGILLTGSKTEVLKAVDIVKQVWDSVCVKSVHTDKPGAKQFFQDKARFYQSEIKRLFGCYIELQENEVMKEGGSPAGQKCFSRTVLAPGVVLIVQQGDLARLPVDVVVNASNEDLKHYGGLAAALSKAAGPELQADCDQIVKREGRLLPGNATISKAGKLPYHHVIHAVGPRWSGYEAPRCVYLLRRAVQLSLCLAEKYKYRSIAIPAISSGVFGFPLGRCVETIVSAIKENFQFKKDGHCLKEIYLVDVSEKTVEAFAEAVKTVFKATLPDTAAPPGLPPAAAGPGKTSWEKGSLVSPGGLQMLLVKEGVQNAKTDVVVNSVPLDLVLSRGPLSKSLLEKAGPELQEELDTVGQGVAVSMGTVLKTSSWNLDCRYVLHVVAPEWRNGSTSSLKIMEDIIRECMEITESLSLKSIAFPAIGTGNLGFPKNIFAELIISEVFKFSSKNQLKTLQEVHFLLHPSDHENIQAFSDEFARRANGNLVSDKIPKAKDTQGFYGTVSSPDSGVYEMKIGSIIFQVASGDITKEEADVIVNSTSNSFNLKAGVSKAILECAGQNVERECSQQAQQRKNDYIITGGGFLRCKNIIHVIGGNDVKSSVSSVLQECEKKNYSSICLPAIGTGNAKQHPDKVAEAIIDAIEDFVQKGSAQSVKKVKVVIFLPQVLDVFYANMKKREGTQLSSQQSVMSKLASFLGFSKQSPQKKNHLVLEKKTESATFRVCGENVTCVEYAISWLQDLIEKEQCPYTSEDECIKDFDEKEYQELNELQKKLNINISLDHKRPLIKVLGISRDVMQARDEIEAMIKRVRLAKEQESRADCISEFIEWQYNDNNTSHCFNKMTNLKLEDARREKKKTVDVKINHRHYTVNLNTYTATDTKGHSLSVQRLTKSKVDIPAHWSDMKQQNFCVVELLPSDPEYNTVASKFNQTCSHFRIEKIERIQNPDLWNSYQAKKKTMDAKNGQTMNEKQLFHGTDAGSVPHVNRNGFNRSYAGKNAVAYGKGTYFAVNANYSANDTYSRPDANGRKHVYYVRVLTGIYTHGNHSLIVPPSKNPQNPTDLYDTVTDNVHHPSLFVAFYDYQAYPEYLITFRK
Briefly: HiBiT assay for the degradation of PARP14 (HiBiT tagged PARP14 in LgBiT expressing Jurkat cells, 2 or 24 hours). Format: cell-based. The following applies: Assay B (Example B): HiBiT tagged PARP14 degradation in LgBiT expressing Jurkat cells, read-out: DC50. Here is the method:
Jurkat cells stably transfected with LgBiT (Promega) were engineered to contain a HiBiT tag on both alleles of the PARP14 gene (Genbank Accession Number: NM_017554) via CRISPR/Cas9 editing. The HiBiT tag is an 11 amino acid tag created by Promega that associates with LgBiT protein to form the NanoLuc® tag on the C-terminus of PARP14. Clones were isolated and confirmed for the HiBiT tag via Sanger sequencing.
Degradation of PARP14 protein was assessed by measuring the luminescence of the HiBiT tag associating with the LgBiT protein as a proxy for the PARP14 protein.
Jurkat cells were diluted to 250,000 cells per mL and then added to assay plate (Corning 3574) using a Multidrop (Thermo Fisher) to add 20 μL per well of the 384 well plate, resulting in 5,000 cells per well. 20 nL of a dose response curve diluted in DMSO of each test compound was added to the cell plate using a Mosquito (TTP Labtech) and the plate was incubated at 37° C. for 2 or 24 hours. Assay plate was brought to room temperature then 5 μL per well of Live Cell Substrate (Promega) was added to the plate. Luminescence was measured on an Envision (Perkin Elmer).
The average DMSO was calculated from 32 wells containing 0.1% DMSO only in columns 12 and 24 of the assay plate. The % of DMSO values were calculated as described below: […]
The % of DMSO values were plotted as a function of compound concentration and the following 4-parameter fit was applied to derive the DC50 values:
where top, bottom, and Hill Coefficient are allowed to float. Y is the % of DMSO and X is the compound concentration.
DC50 data for the Example compounds is provided below in Table 2 (“+” is ≤0.03 μM; “++” is ≥0.03 μM).
In general terms: The HiBiT peptide binds its large partner to form an active luciferase.
For orientation: DC50 means the midpoint of the concentration-degradation curve. On to `O=C1CCC(Nc2ccc(N3CCN(C(=O)N4CCC(COc5cc(F)c6c(=O)[nH]c(CSC7CCOCC7)nc6c5)CC4)CC3)c(F)c2)C(=O)N1` (centres unmarked) [Example 154, 3-((3-fluoro-4-(4-(4-(((5-fluoro-4-oxo-2-(((tetrahydro-2H-pyran-4-yl)thio)methyl)-3,4-dihydroquinazolin-7-yl)oxy)methyl)piperidine-1-carbonyl)piperazin-1-yl)phenyl)amino)piperidine-2,6-dione], for which the DC50 is under 30 nM.
In the case of `O=C1CCC(Nc2cnc(N3CCN(CCN4CCC(COc5cc(F)c6c(=O)[nH]c(CSC7CCOCC7)nc6c5)CC4)CC3)c(F)c2)C(=O)N1` (centres unmarked) [Example 108, 3-((5-fluoro-6-(4-(2-(4-(((5-fluoro-4-oxo-2-(((tetrahydro-2H-pyran-4-yl)thio)methyl)-3,4-dihydroquinazolin-7-yl)oxy)methyl)piperidin-1-yl)ethyl)piperazin-1-yl)pyridin-3-yl)amino)piperidine-2,6-dione] it was under 30 nM.
As to `O=C1CCC(Nc2ccc(N3CCC(N4CC(C(=O)N5CCC(COc6cc(F)c7c(=O)[nH]c(CSC8CCOCC8)nc7c6)CC5)C4)CC3)c(F)c2)C(=O)N1` (centres unmarked) [Example 171, 3-((3-fluoro-4-(4-(3-(4-(((5-fluoro-4-oxo-2-(((tetrahydro-2H-pyran-4-yl)thio)methyl)-3,4-dihydroquinazolin-7-yl)oxy)methyl)piperidine-1-carbonyl)azetidin-1-yl)piperidin-1-yl)phenyl)amino)piperidine-2,6-dione], the DC50 was under 30 nM.
Consider `O=C1CCC(Nc2ccc(N3CCC(N4CCC(COc5cc(F)c6c(=O)[nH]c(CCC7CCOCC7)nc6c5)CC4)CC3)cc2)C(=O)N1` (centres unmarked) [Example 114], for which the DC50 is under 30 nM.
Regarding `O=C1CCC(Nc2ccc(N3CCN(CCN4CCC(COc5cc(F)c6c(=O)[nH]c(COC7CCOCC7)nc6c5)CC4)CC3)c(F)c2)C(=O)N1` (single isomer, unassigned) [Example 99a, 3-((3-fluoro-4-(4-(2-(4-(((5-fluoro-4-oxo-2-(((tetrahydro-2H-pyran-4-yl)oxy)methyl)-3,4-dihydroquinazolin-7-yl)oxy)methyl)piperidin-1-yl)ethyl)piperazin-1-yl)phenyl)amino)piperidine-2,6-dione], the 50% degradation concentration (DC50) was under 30 nM.
As for `O=C1CCC(Nc2ccc(OC3CCC(CN4CCC(COc5cc(F)c6c(=O)[nH]c(CSC7CCOCC7)nc6c5)CC4)CC3)cc2)C(=O)N1` (centres unmarked) [Example 111], the DC50 is under 30 nM.
Under `O=C1CCC(Nc2ccc(N3CCN(CCN4CCC(CNc5cc6nc(CSC7CCOCC7)[nH]c(=O)c6c(F)c5F)CC4)CC3)cc2)C(=O)N1` (centres unmarked) [Example 129, 3-((4-(4-(2-(4-(((5,6-difluoro-4-oxo-2-(((tetrahydro-2H-pyran-4-yl)thio)methyl)-3,4-dihydroquinazolin-7-yl)amino)methyl)piperidin-1-yl)ethyl)piperazin-1-yl)phenyl)amino)piperidine-2,6-dione formate] stands under 30 nM; under `O=C1CCN(c2cncc3c(N4CCN(CCN5CCC(COc6cc(F)c7c(=O)[nH]c(CSC8CCOCC8)nc7c6)CC5)CC4)cccc23)C(=O)N1` [Example 210, 1-(8-(4-(2-(4-(((5-fluoro-4-oxo-2-(((tetrahydro-2H-pyran-4-yl)thio)methyl)-3,4-dihydroquinazolin-7-yl)oxy)methyl)piperidin-1-yl)ethyl)piperazin-1-yl)isoquinolin-4-yl)dihydropyrimidine-2,4(1H,3H)-dione], under 30 nM; under `O=C1CCC(Nc2ccc(N3CCC4(CC3)CC(N3CCC(COc5cc(F)c6c(=O)[nH]c(CSC7CCOCC7)nc6c5)CC3)C4)cc2)C(=O)N1` (centres unmarked) [Example 128], under 30 nM.
As to `COc1cc(N2CCC(CN3CCC(COc4cc(F)c5c(=O)[nH]c(CSC6CCOCC6)nc5c4)CC3)CC2)c(F)cc1NC1CCC(=O)NC1=O` (centres unmarked) [Example 229, 3-((5-fluoro-4-(4-((4-(((5-fluoro-4-oxo-2-(((tetrahydro-2H-pyran-4-yl)thio)methyl)-3,4-dihydroquinazolin-7-yl)oxy)methyl)piperidin-1-yl)methyl)piperidin-1-yl)-2-methoxyphenyl)amino)piperidine-2,6-dione], the DC50 is under 30 nM.
As to `COc1cc(N2CCC(N3CC(N4CCC(COc5cc(F)c6c(=O)[nH]c(CSC7CCOCC7)nc6c5)CC4)C3)CC2)c(F)cc1NC1CCC(=O)NC1=O` (centres unmarked) [Example 139], the DC50 was under 30 nM.
For `O=C1CCC(Nc2ccc(OC3CCN(CCN4CCC(COc5cc(F)c6c(=O)[nH]c(CSC7CCOCC7)nc6c5)CC4)CC3)cc2)C(=O)N1` (centres unmarked) [Example 120, 3-((4-((1-(2-(4-(((5-fluoro-4-oxo-2-(((tetrahydro-2H-pyran-4-yl)thio)methyl)-3,4-dihydroquinazolin-7-yl)oxy)methyl)piperidin-1-yl)ethyl)piperidin-4-yl)oxy)phenyl)amino)piperidine-2,6-dione], the 50% degradation concentration (DC50) was under 30 nM.
In the case of `O=C1CCC(Nc2ccc(N3CCC(CN4CCC(C#Cc5cc(F)c6c(=O)[nH]c(CSC7CCOCC7)nc6c5)CC4)CC3)c(F)c2)C(=O)N1` (centres unmarked) [Example 220, 3-((3-fluoro-4-(4-((4-((5-fluoro-4-oxo-2-(((tetrahydro-2H-pyran-4-yl)thio)methyl)-3,4-dihydroquinazolin-7-yl)ethynyl)piperidin-1-yl)methyl)piperidin-1-yl)phenyl)amino)piperidine-2,6-dione formate] it was under 30 nM; in that of `O=C1CCC(Nc2ccc(N3CCC(N4CC(N5CCC(COc6cc(F)c7c(=O)[nH]c(CSC8CCOCC8)nc7c6)CC5)C4)CC3)c(C(F)(F)F)c2)C(=O)N1` (centres unmarked) [Example 230, 3-((4-(4-(3-(4-(((5-fluoro-4-oxo-2-(((tetrahydro-2H-pyran-4-yl)thio)methyl)-3,4-dihydroquinazolin-7-yl)oxy)methyl)piperidin-1-yl)azetidin-1-yl)piperidin-1-yl)-3-(trifluoromethyl)phenyl)amino)piperidine-2,6-dione], under 30 nM; in that of `O=C1CCC(Nc2ccc(N3CCN(CCN4CCC(COc5cc(F)c6c(=O)[nH]c(CC7CCCC7)nc6c5)CC4)CC3)c(F)c2)C(=O)N1` (centres unmarked) [Example 107, 3-((4-(4-(2-(4-(((2-(cyclopentylmethyl)-5-fluoro-4-oxo-3,4-dihydroquinazolin-7-yl)oxy)methyl)piperidin-1-yl)ethyl)piperazin-1-yl)-3-fluorophenyl)amino)piperidine-2,6-dione formate], under 30 nM.
In the case of `O=C1CCC(Nc2ccc(N3CCC(N4CC(N5CCC(CCOc6cc(F)c7c(=O)[nH]c(CSC8CCOCC8)nc7c6)CC5)C4)CC3)c(F)c2)C(=O)N1` (centres unmarked) [Example 235, 3-((3-fluoro-4-(4-(3-(4-(2-((5-fluoro-4-oxo-2-(((tetrahydro-2H-pyran-4-yl)thio)methyl)-3,4-dihydroquinazolin-7-yl)oxy)ethyl)piperidin-1-yl)azetidin-1-yl)piperidin-1-yl)phenyl)amino)piperidine-2,6-dione], the DC50 is under 30 nM.
In the case of `O=C1CCC(Nc2ccc(N3CCN(C(=O)CN4CCC(COc5cc(F)c6c(=O)[nH]c(CSC7CCOCC7)nc6c5)CC4)CC3)c(F)c2)C(=O)N1` (centres unmarked) [Example 189, 3-((3-fluoro-4-(4-(2-(4-(((5-fluoro-4-oxo-2-(((tetrahydro-2H-pyran-4-yl)thio)methyl)-3,4-dihydroquinazolin-7-yl)oxy)methyl)piperidin-1-yl)acetyl)piperazin-1-yl)phenyl)amino)piperidine-2,6-dione] it was under 30 nM; in that of `Cn1nc(C2CCC(=O)NC2=O)c2cc(F)c(C3CCN(CCN4CCC(COc5cc(F)c6c(=O)[nH]c(CSC7CCOCC7)nc6c5)CC4)CC3)cc21` (centres unmarked) [Example 195, 3-(5-fluoro-6-(1-(2-(4-(((5-fluoro-4-oxo-2-(((tetrahydro-2H-pyran-4-yl)thio)methyl)-3,4-dihydroquinazolin-7-yl)oxy)methyl)piperidin-1-yl)ethyl)piperidin-4-yl)-1-methyl-1H-indazol-3-yl)piperidine-2,6-dione], under 30 nM; in that of `O=C1CCC(Nc2ccc(N3CCC(N4CCC(N5CCC(COc6cc(F)c7c(=O)[nH]c(CSC8CCOCC8)nc7c6)CC5=O)CC4)CC3)c(F)c2)C(=O)N1` (centres unmarked) [Example 214, 3-((3-fluoro-4-(4-(((5-fluoro-4-oxo-2-(((tetrahydro-2H-pyran-4-yl)thio)methyl)-3,4-dihydroquinazolin-7-yl)oxy)methyl)-2-oxo-[1,4′:1′,4″-terpiperidin]-1″-yl)phenyl)amino)piperidine-2,6-dione formate], under 30 nM.
Regarding `O=C1CCC(NC(=O)c2ccc(N3CCC(N4CC(N5CCC(COc6cc(F)c7c(=O)[nH]c(CSC8CCOCC8)nc7c6)CC5)C4)CC3)cc2F)C(=O)N1` (centres unmarked) [Example 151, N-(2,6-dioxopiperidin-3-yl)-2-fluoro-4-(4-(3-(4-(((5-fluoro-4-oxo-2-(((tetrahydro-2H-pyran-4-yl)thio)methyl)-3,4-dihydroquinazolin-7-yl)oxy)methyl)piperidin-1-yl)azetidin-1-yl)piperidin-1-yl)benzamide], the DC50 is under 30 nM.
